Earlier results on 1 substance are cited in publication PMC10723152 (Proceedings of the National Academy of Sciences of the …, 2023).

For this data set, the system named is cynomolgus macaques. The note with it: adult male cynomolgus macaques, 2 Gy sublethal whole-body irradiation.

Turning to “recombinant hGH: recombinant human Growth Hormone, biologic compared from the authors' previous work”, the hematopoietic recovery entry is “enhanced hematopoietic recovery”.
